# Results reported in patent US10179790B2 (THOMAS HELLEDAYS STIFTELSE FOR MEDICINSK FORSKNING, priority 2014, dated 2019).
# Molecular target: MTH1 (Homo sapiens, UniProt P36639)
# Test: MTH1 enzymatic assay and IC50 value determination (malachite green, 96- and 384-well format)
# Format: biochemical
# Conditions: hydrolysis of dGTP (100 μM), MTH1 6 nM, pyrophosphatase-coupled malachite green, 15 minutes at 22° C.
# Protocol: MTH1 Enzymatic Assay and IC50 Value Determination
# MTH1 catalyzes the hydrolysis of dGTP to dGMP and PPi. By coupling the reaction to pyrophosphatase added in excess PPi is converted to Pi that can be detected by using the malachite green assay reagent. Two different formats were used for IC50 determinations in the enzymatic assay, 96- and 384-well format. 96-Well Method:
# Briefly, the compound to be analyzed is diluted in DMSO in a 1:3 dilution series generating 12 different compound concentrations giving a final DMSO concentration of 1% in the assay well. MTH1 diluted in assay buffer (100 mM Tris-acetate, 40 mM NaCl, 10 mM magnesium acetate, 1 mM DTT and 0.005% Tween 20) fortified with E. coli pyrophosphatase (0.2 U/ml) is added to a final concentration of 6 nM. dGTP diluted in assay buffer is added to a final concentration of 100 μM. The reaction mixture is incubated for 15 minutes at 22° C. To 100 μl reaction mixture, 25 μl Malachite green assay regent (0.095% Malachite green in 17% H2SO4, 1.5% Ammonium molybdate, 0.17% Tween 20) is added, followed by incubation with shaking for 15 minutes at 22° C. The absorbance of the assay plate is read at 630 nm using a Hidex Sense Multilabel plate reader. The IC50 value is determined by fitting a dose response curve to the data points using nonlinear regression analysis and the equation Y=Bottom+(Top−Bottom)/(1+10^((Log IC50−X)*HillSlope)), where Y is the read absorbance at 630 nm and X is log [compound].
# The compounds to be tested are nano-dispensed, in 11 concentrations, directly in assay plates, with a final DMSO concentration <1%. The protocol and the reaction mixture are the same as for the 96-well assay, with a total reaction volume of 50 μl/well to which 10 μl of Malachite green reagent is added. All additions to the assay plates are made with multidrop.
row,Compound,IC50
1,"Cc1ccc(-c2cc(NCCc3ccc(S(N)(=O)=O)cc3)nc(N)n2)o1 [Example 4, 4-(2-{[2-amino-6-(5-methylfuran-2-yl)pyrimidin-4-yl]amino}ethyl)benzene-1-sulfonamide]",< 200 nM
2,"Cc1cccc(-c2cc(NCCNc3ccc(C(N)=O)cn3)nc(N)n2)c1C [Example 5, 6-[(2-{[2-amino-6-(2,3-dimethylphenyl)pyrimidin-4-yl]amino}ethyl)amino]pyridine-3-carboxamide]",< 200 nM
3,"CSc1ccc(NC(=O)NCCCCNc2cc(-c3cccc(Cl)c3Cl)nc(N)n2)cc1 [Example 6, 3-(4-{[2-amino-6-(2,3-dichlorophenyl)pyrimidin-4-yl]amino}butyl)-1-[4-(methylsulfanyl)phenyl]urea]",< 200 nM
4,"C[S+]([O-])c1ccc(NC(=O)NCCCCNc2cc(-c3cccc(Cl)c3Cl)nc(N)n2)cc1 (stereo not drawn) [Example 7, 3-(4-{[2-amino-6-(2,3-dichlorophenyl)pyrimidin-4-yl]amino}butyl)-1-(4-methanesulfinylphenyl)urea]",< 200 nM
5,"Cc1cc(-c2cc(NCCNc3ccc([N+](=O)[O-])cn3)nc(N)n2)c(C)cc1F [Example 8, 6-(4-fluoro-2,5-dimethylphenyl)-4-N-{2-[(5-nitropyridin-2-yl)amino]ethyl}pyrimidine-2,4-diamine]",< 200 nM
6,"Cc1c(Cl)cccc1-c1cc(NCCc2ccc(C(=O)O)cc2)nc(N)n1 [Example 9, 4-(2-{[2-amino-6-(3-chloro-2-methylphenyl)pyrimidin-4-yl]amino}ethyl)benzoic acid]",< 200 nM
7,"CC(=O)c1sccc1-c1cc(NCCc2ccc(S(N)(=O)=O)cc2)nc(N)n1 [Example 10, 4-(2-{[6-(2-acetylthiophen-3-yl)-2-aminopyrimidin-4-yl]amino}ethyl)benzene-1-sulfonamide]",< 200 nM
8,"CC(=O)Nc1ccc(NCCNc2cc(-c3cc(C)c(F)cc3C)nc(N)n2)nc1 [Example 11, N-{6-[(2-{[2-amino-6-(4-fluoro-2,5-dimethylphenyl)pyrimidin-4-yl]amino}ethyl)amino]pyridin-3-yl}acetamide]",< 200 nM
9,"Cc1cc(-c2cc(NCCNc3ccc(NS(C)(=O)=O)cn3)nc(N)n2)c(C)cc1F [Example 12, N-{6-[(2-{[2-amino-6-(4-fluoro-2,5-dimethylphenyl)pyrimidin-4-yl]amino}ethyl)amino]pyridin-3-yl}methanesulfonamide]",< 200 nM
10,"Cc1cccc(-c2cc(NCCNc3cncc(S(N)(=O)=O)c3)nc(N)n2)c1C [Example 14, 5-[(2-{[2-amino-6-(2,3-dimethylphenyl)pyrimidin-4-yl]amino}ethyl)amino]pyridine-3-sulfonamide]",< 200 nM
11,"Cc1c(Cl)cccc1-c1cc(N[C@H]2C[C@@H]2c2ccc(S(N)(=O)=O)cc2)nc(N)n1 [Example 15, 4-[(1R,2S)-2-{[2-amino-6-(3-chloro-2-methylphenyl)pyrimidin-4-yl]amino}cyclopropyl]benzene-1-sulfonamide]",< 200 nM
12,"CC(C)(C)OC(=O)NCc1ccc(-c2cc(NCCc3ccc(S(C)(=O)=O)cc3)nc(N)n2)s1 [Example 18, tert-butyl N-{[5-(2-amino-6-{[2-(4-methanesulfonylphenyl)ethyl]amino}pyrimidin-4-yl)thiophen-2-yl]methyl}carbamate]",< 200 nM
13,"Nc1nc(NCCc2ccc(S(N)(=O)=O)cc2)cc(-c2cccc(O)c2)n1 [Example 27, 4-(2-{[2-amino-6-(3-hydroxyphenyl)pyrimidin-4-yl]amino}ethyl)benzene-1-sulfonamide]",< 200 nM
14,"Nc1nc(NCCc2ccc(S(N)(=O)=O)cc2)cc(-c2cccc(OS(=O)(=O)C(F)(F)F)c2)n1 [Example 33, 3-(2-amino-6-{[2-(4-sulfamoylphenyl)ethyl]amino}pyrimidin-4-yl)phenyl trifluoromethanesulfonate]",< 200 nM
15,"Cc1cccc(-c2cc(NCCc3ccc(C(=O)O)cc3)nc(N)n2)c1C [Example 34, 4-(2-{[2-amino-6-(2,3-dimethylphenyl)pyrimidin-4-yl]amino}ethyl)benzoic acid]",< 200 nM
16,"Nc1nc(NCCNc2ccc3c(c2)NC(=O)CO3)cc(-c2cccc(Cl)c2)n1 [Example 37, 6-[(2-{[2-amino-6-(3-chlorophenyl)pyrimidin-4-yl]amino}ethyl)amino]-3,4-dihydro-2H-1,4-benzoxazin-3-one]",< 200 nM
17,"Cc1cccc(-c2cc(NCCNc3nc(N)nc4[nH]cnc34)nc(N)n2)c1C [Example 45, 4-N-{2-[(2-amino-9H-purin-6-yl)amino]ethyl}-6-(2,3-dimethylphenyl)pyrimidine-2,4-diamine]",< 200 nM

row,Compound,IC50
1,"COC(=O)c1cc(C)nc(NCCNc2cc(-c3cccc(C)c3C)nc(N)n2)n1 [Example 50, methyl 2-[(2-{[2-amino-6-(2,3-dimethylphenyl)pyrimidin-4-yl]amino}ethyl)amino]-6-methylpyrimidine-4-carboxylate]",< 200 nM
2,"Cc1cccc(-c2cc(NCCNc3ncnc4[nH]cnc34)nc(N)n2)c1C [Example 51, 6-(2,3-dimethylphenyl)-4-N-{2-[(9H-purin-6-yl)amino]ethyl}pyrimidine-2,4-diamine]",< 200 nM
3,"Cc1cc(Cl)c(Cl)cc1-c1cc(NCCc2ccc(S(N)(=O)=O)cc2)nc(N)n1 [Example 67, 4-(2-{[2-amino-6-(4,5-dichloro-2-methylphenyl)pyrimidin-4-yl]amino}ethyl)benzene-1-sulfonamide]",< 200 nM
4,"COc1cc(C)c(-c2cc(NCCc3ccc(S(N)(=O)=O)cc3)nc(N)n2)cc1Cl [Example 68, 4-(2-{[2-amino-6-(5-chloro-4-methoxy-2-methylphenyl)pyrimidin-4-yl]amino}ethyl)benzene-1-sulfonamide]",< 200 nM
5,"Nc1nc(NCCc2ccc(S(N)(=O)=O)cc2)cc(-c2cccc3[nH]ccc23)n1 [Example 69, 4-(2-{[2-amino-6-(1H-indol-4-yl)pyrimidin-4-yl]amino}ethyl)benzene-1-sulfonamide]",< 200 nM
6,"Cc1ccc(F)cc1-c1cc(NCCc2ccc(S(N)(=O)=O)cc2)nc(N)n1 [Example 71, 4-(2-{[2-amino-6-(5-fluoro-2-methylphenyl)pyrimidin-4-yl]amino}ethyl)benzene-1-sulfonamide]",< 200 nM
7,"NC(=O)c1ccc(CCNc2cc(-c3cccc(Cl)c3F)nc(N)n2)cc1 [Example 80, 4-(2-{[2-amino-6-(3-chloro-2-fluorophenyl)pyrimidin-4-yl]amino}ethyl)benzamide]",< 200 nM
8,"Cc1c(Cl)cccc1-c1cc(NCCc2cccc(C(N)=O)c2)nc(N)n1 [Example 88, 3-[2-[[2-amino-6-(3-chloro-2-methyl-phenyl)pyrimidin-4-yl]amino]ethyl]benzamide]",< 200 nM
9,"CN1C(=O)COc2ccc(NCCNc3cc(-c4cccc(Cl)c4Cl)nc(N)n3)cc21 [Example 94, 6-[2-[[2-amino-6-(2,3-dichlorophenyl)pyrimidin-4-yl]amino]ethylamino]-4-methyl-1,4-benzoxazin-3-one]",< 200 nM
10,"Nc1nc(NCCc2ccc(S(N)(=O)=O)cc2)cc(-c2ccc(Cl)c(Cl)c2Cl)n1 [Example 98, 4-[2-[[2-amino-6-(2,3,4-trichlorophenyl)pyrimidin-4-yl]amino]ethyl]benzenesulfonamide]",< 200 nM
11,"COc1c(Cl)ccc(-c2cc(NCCc3ccc(S(N)(=O)=O)cc3)nc(N)n2)c1Cl [Example 99, 4-[2-[[2-amino-6-(2,4-dichloro-3-methoxy-phenyl)pyrimidin-4-yl]amino]ethyl]benzenesulfonamide]",< 200 nM
12,"Cc1c(Cl)cccc1-c1cc(NCCn2c([N+](=O)[O-])cnc2C)nc(N)n1 [Example 100, 6-(3-chloro-2-methyl-phenyl)-N4-[2-(2-methyl-5-nitro-imidazol-1-yl)ethyl]pyrimidine-2,4-diamine]",< 200 nM
13,"Nc1nc(NCCc2ccc(S(N)(=O)=O)cc2)cc(-c2csc3ccccc23)n1 [Example 102, 4-[2-[[2-amino-6-(benzothiophen-3-yl)pyrimidin-4-yl]amino]ethyl]benzenesulfonamide]",< 200 nM
14,"Cc1c(Cl)cccc1-c1cc(NCCc2ccc(C(=N)N)cc2)nc(N)n1 [Example 125, 4-[2-[[2-amino-6-(3-chloro-2-methyl-phenyl)pyrimidin-4-yl]amino]ethyl]benzamidine]",< 200 nM
15,"CC(C)(C)OC(=O)N1CC=C(c2cc(NCCc3ccc(S(C)(=O)=O)cc3)nc(N)n2)CC1 [Example 129, tert-butyl 4-(2-amino-6-{[2-(4-methanesulfonylphenyl)ethyl]amino}pyrimidin-4-yl)-1,2,3,6-tetrahydropyridine-1-carboxylate]",< 200 nM
16,"Cc1ccc(S(=O)(=O)N2CC=C(c3cc(NCCc4ccc(S(C)(=O)=O)cc4)nc(N)n3)CC2)cc1 [Example 130, 4-N-[2-(4-methanesulfonylphenyl)ethyl]-6-[1-(4-methylbenzenesulfonyl)-1,2,3,6-tetrahydropyridin-4-yl]pyrimidine-2,4-diamine]",< 200 nM
